According to patent US9688662B2, “N-(2,3-dihydro-1H-pyrrolo[2,3-b]pyridin-5-yl)-4-quinazolinamine and N-(2,3-dihydro-1H-indol-5-yl)-4-quinazolinamine derivatives as perk inhibitors” (Janssen Pharmaceutica NV, priority 2013, dated 2017):

How the values were obtained:
PERK [1] = target: T1, PERK (Homo sapiens, UniProt Q9NZJ5); experiment: In-vitro PERK enzyme inhibition assay (LanthaScreen, KIN_PERK); assay type: biochemical; design: GST (N); purchased Invitrogen PV5106; details: recombinant GST-PERK, GFP-eIF2 alpha substrate, 5 μM ATP, 60 minutes; for IC50: read-out: KIN_PERK pIC50 (converted)
T1 sequence (Q9NZJ5 30-1116): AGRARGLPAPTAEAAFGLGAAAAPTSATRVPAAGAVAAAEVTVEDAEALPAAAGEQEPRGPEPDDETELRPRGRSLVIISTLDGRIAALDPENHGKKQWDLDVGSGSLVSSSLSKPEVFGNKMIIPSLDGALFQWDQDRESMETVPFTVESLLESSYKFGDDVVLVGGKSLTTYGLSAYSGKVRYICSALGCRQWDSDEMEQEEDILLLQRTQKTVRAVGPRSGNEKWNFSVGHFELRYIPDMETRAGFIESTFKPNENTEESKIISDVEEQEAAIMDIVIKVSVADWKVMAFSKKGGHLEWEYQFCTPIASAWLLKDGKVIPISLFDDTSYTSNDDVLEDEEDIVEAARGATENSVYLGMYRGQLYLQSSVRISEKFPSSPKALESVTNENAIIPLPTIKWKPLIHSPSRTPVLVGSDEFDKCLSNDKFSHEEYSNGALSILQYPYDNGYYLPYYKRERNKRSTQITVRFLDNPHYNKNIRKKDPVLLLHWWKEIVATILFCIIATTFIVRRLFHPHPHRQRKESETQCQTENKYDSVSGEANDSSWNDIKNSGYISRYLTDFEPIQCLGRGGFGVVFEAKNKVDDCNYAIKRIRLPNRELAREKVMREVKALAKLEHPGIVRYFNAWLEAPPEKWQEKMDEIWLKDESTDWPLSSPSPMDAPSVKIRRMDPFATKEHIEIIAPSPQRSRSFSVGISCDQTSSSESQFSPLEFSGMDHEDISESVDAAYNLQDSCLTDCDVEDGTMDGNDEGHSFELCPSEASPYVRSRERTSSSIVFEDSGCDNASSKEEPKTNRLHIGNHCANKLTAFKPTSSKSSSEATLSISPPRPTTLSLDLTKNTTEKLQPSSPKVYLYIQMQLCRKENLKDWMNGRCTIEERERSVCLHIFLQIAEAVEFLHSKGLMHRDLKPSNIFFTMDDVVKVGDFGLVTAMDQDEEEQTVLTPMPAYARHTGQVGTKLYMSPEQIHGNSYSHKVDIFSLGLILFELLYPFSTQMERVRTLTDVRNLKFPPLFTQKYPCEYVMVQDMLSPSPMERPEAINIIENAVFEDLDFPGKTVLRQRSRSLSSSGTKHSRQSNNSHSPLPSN
Experimental: Pharmacology i) In-Vitro PERK Enzyme Inhibition Assay (KIN_PERK pIC50)
The compounds of the invention were tested for inhibitory activity against PERK in an enzyme inhibition assay.
A biochemical PERK kinase assay using LanthaScreen® technology from Invitrogen using recombinant GST-PERK (Invitrogen PV5106), GFP-eIF2 alpha (full length) as substrate (Invitrogen PV4809) and the Terbium-labeled antibody (Tb-anti-peIF2alpha (pSer52); Invitrogen PV4816) as detection reagent, was performed essentially as described by the manufacturer, using following specific parameters: […]

PERK [2] = target: T1, PERK; experiment: Cell-based PERK inhibition assay (TR-FRET, phosphorylation of GFP-eIF2 alpha in HEK293 cells, tunicamycin); details: HEK293 (LanthaScreen eIF2α GripTite) cells, compounds 60 min, tunicamycin 2 microg/ml 120 min; for IC50: read-out: P-eIF2alpha_Lantha_cell pIC50 (converted)
Experimental: A cell-based TR-FRET assay to measure inhibition of phosphorylation of GFP-eIF2 alpha expressed in HEK293 cells by compounds was set up as follows:
LanthaScreen® eIF2α GripTite cells (Invitrogen M4387) were plated and incubated for 16-20 h at 37° C. and 5% CO2, incubated with test compounds for 60 min, and then stimulated with tunicamycin (2 microg/ml) for 120 min. Culture medium was aspirated from the wells and, the cells were lysed in LanthaScreen® Cellular Assay Lysis Buffer (Invitrogen; PV5598), supplemented with protease inhibitor cocktail (Sigma P8340, 1/1000 dilution) and phosphatase inhibitor cocktail (Sigma P0044, 1/1000 dilution), including 2 nM terbium-labeled eIF2a pSer52 antibody (Invitrogen; PV4816).

Row | SMILES | KIN_PERK pIC50 (PERK [1]) | melting point [°C] | P-eIF2alpha_Lantha_cell pIC50 (PERK [2]) | IC50 (PERK [1]) [nM] | IC50 (PERK [2]) [nM]
1 | COc1cc2ncnc(Nc3ccc4c(c3F)CCN4C(=O)Cc3c(C)[nH]c4ccccc34)c2cc1OC [Compound 39, 1-[5-[(6,7-dimethoxyquinazolin-4-yl)amino]-4-fluoro-indolin-1-yl]-2-(2-methyl-1H-indol-3-yl)ethanone] | 9.0 | 174 | 7.9 | – | –
2 | COc1cc2ncnc(Nc3ccc4c(c3)CCN4C(=O)Cc3nn(C)c4ccccc34)c2cc1OC [Compound 17] | – | 158 | – | 20 | 794
3 | COc1cc2ncnc(Nc3ccc4c(c3)CCN4C(=O)Cn3ccc4ccccc43)c2cc1OC [Compound 15] | 8.2 | 176 | – | – | ~302
4 | COc1cc2ncnc(Nc3ccc4c(c3)CCN4C(=O)Cc3cc(F)ccc3F)c2cc1OC [Compound 42] | – | > 260 | – | 6.31 | 631
5 | COc1cc2ncnc(Nc3ccc4c(c3)CCN4C(=O)Cc3cccs3)c2cc1OC [Compound 20] | – | 219 | – | 31.6 | 1260
6 | COc1cc2ncnc(Nc3ccc4c(c3F)CCN4C(=O)Cc3cc(F)ccc3F)c2cc1OC [Compound 3] | – | 210 | – | 0.398 | 50.1
7 | COc1cc2ncnc(Nc3ccc4c(c3)CCN4C(=O)Cc3c(C)n(C)c4ccccc34)c2cc1OC [Compound 5] | – | 168 | – | 1.26 | 63.1
8 | COc1cc2ncnc(Nc3ccc4c(c3)CCN4C(=O)Cc3ccn(C)n3)c2cc1OC [Compound 28] | 6.6 | 199 | 5.1 | – | –
9 | COc1cc2ncnc(Nc3ccc4c(c3)CCN4C(=O)Cc3c(Br)cnn3C)c2cc1OC [Compound 11, 2-(4-bromo-2-methyl-pyrazol-3-yl)-1-[5-[(6,7-dimethoxyquinazolin-4-yl)amino]indolin-1-yl]ethanone] | – | 170 | – | 7.94 | 251
10 | COc1cc2ncnc(Nc3ccc4c(c3)CCN4C(=O)Cn3ccnc3)c2cc1OC [Compound 53] | – | 174 | – | > 10000 | > 10000
